Test results as given in ChEMBL document CHEMBL4715829, “Heterodimeric Rifampicin-Tobramycin conjugates break intrinsic resistance of Pseudomonas aeruginosa to doxycycline and chloramphenicol in vitro and in a Galleria mellonella in vivo model” (Eur J Med Chem, 2019).
In brackets after ≈: the same amount, converted by molar mass.

Legend:
[1] = system: Escherichia coli; experiment: Antibacterial activity against Escherichia coli ATCC 25922 assessed as reduction in bacterial growth incubated for 18 hrs by broth microdilution assay; type: functional
[2] = system: Pseudomonas aeruginosa; experiment: Antibacterial activity against Pseudomonas aeruginosa ATCC 27853 assessed as reduction in bacterial growth incubated for 18 hrs by broth microdilution assay; type: functional
[3] = system: Staphylococcus epidermidis; experiment: Antibacterial activity against methicillin-resistance Staphylococcus epidermidis CAN-ICU 61589 (CAZ>32) assessed as reduction in bacterial growth incubated for 18 hrs by broth microdilution assay; type: functional
[4] = system: Escherichia coli; experiment: Antibacterial activity against gentamicin-resistant Escherichia coli CAN-ICU 61714 assessed as reduction in bacterial growth incubated for 18 hrs by broth microdilution assay; type: functional
[5] = system: Escherichia coli; experiment: Antibacterial activity against Escherichia coli CAN-ICU 63074 (AMK 32) assessed as reduction in bacterial growth incubated for 18 hrs by broth microdilution assay; type: functional
[6] = system: Pseudomonas aeruginosa; experiment: Antibacterial activity against gentamicin, tobramycin-resistant Pseudomonas aeruginosa CANWARD 96846 assessed as reduction in bacterial growth incubated for 18 hrs by broth microdilution assay; type: functional
[7] = system: Klebsiella pneumoniae; experiment: Antibacterial activity against Klebsiella pneumoniae ATCC 13883 assessed as reduction in bacterial growth incubated for 18 hrs by broth microdilution assay; type: functional
[8] = system: Pseudomonas aeruginosa; experiment: Antibacterial activity against wild type Pseudomonas aeruginosa PAO1 assessed as reduction in bacterial growth incubated for 18 hrs by broth microdilution assay; type: functional
[9] = system: Pseudomonas aeruginosa; experiment: Antibacterial activity against Pseudomonas aeruginosa 750 harboring efflux mutant assessed as reduction in bacterial growth incubated for 18 hrs by broth microdilution assay; type: functional
[10] = system: Pseudomonas aeruginosa; experiment: Antibacterial activity against Pseudomonas aeruginosa 101243 assessed as fractional inhibitory concentration index in presence of chloramphenicol incubated for 18 hrs by broth microdilution assay; type: functional
[11] = system: Pseudomonas aeruginosa; experiment: Antibacterial activity against Pseudomonas aeruginosa 262-101856 assessed as fractional inhibitory concentration index in presence of doxycycline incubated for 18 hrs by broth microdilution assay; type: functional
[12] = system: Pseudomonas aeruginosa; experiment: Antibacterial activity against Pseudomonas aeruginosa 262-101856 assessed as fractional inhibitory concentration index in presence of chloramphenicol incubated for 18 hrs by broth microdilution assay; type: functional
[13] = system: Pseudomonas aeruginosa; experiment: Antibacterial activity against Pseudomonas aeruginosa 262-101856 assessed as reduction in bacterial growth incubated for 18 hrs by broth microdilution assay; type: functional
[14] = system: Pseudomonas aeruginosa; experiment: Antibacterial activity against Pseudomonas aeruginosa 264-101354 assessed as reduction in bacterial growth incubated for 18 hrs by broth microdilution assay; type: functional
[15] = system: Pseudomonas aeruginosa; experiment: Antibacterial activity against Pseudomonas aeruginosa 101243 assessed as reduction in bacterial growth incubated for 18 hrs by broth microdilution assay; type: functional
[16] = system: Pseudomonas aeruginosa; experiment: Antibacterial activity against Pseudomonas aeruginosa 114228 assessed as reduction in bacterial growth incubated for 18 hrs by broth microdilution assay; type: functional
[17] = system: Pseudomonas aeruginosa; experiment: Antibacterial activity against Pseudomonas aeruginosa PAO1 assessed as reduction in bacterial growth by measuring rifampicin MIC at <=[…] uM in presence of rifampicin incubated for 18 hrs by broth microdilution assay based checkerboard assay (reference value: […] microg/ml); type: functional; details: dose microM <=10
[18] = system: Pseudomonas aeruginosa; experiment: Antibacterial activity against Pseudomonas aeruginosa PAO1 assessed as reduction in bacterial growth by measuring minocycline MIC at <=10 uM in presence of minocycline incubated for 18 hrs by broth microdilution assay based checkerboard assay (reference value: 8 microg/ml); type: functional; details: dose microM <=10
[19] = system: Pseudomonas aeruginosa; experiment: Antibacterial activity against Pseudomonas aeruginosa PAO1 assessed as reduction in bacterial growth by measuring meropenem MIC at <=10 uM in presence of meropenem incubated for 18 hrs by broth microdilution assay based checkerboard assay (reference value: 1 microg/ml); type: functional; details: dose microM <=10
[20] = system: Pseudomonas aeruginosa; experiment: Antibacterial activity against Pseudomonas aeruginosa PAO1 assessed as reduction in bacterial growth by measuring ceftazidime MIC at <=10 uM in presence of ceftazidime incubated for 18 hrs by broth microdilution assay based checkerboard assay (reference value: 2 microg/ml); type: functional; details: dose microM <=10
[21] = system: Pseudomonas aeruginosa; experiment: Antibacterial activity against Pseudomonas aeruginosa PAO1 assessed as reduction in bacterial growth by measuring fosfomycin MIC at <=[…] uM in presence of fosfomycin incubated for 18 hrs by broth microdilution assay based checkerboard assay (reference value: […] microg/ml); type: functional; details: dose microM <=10
[22] = system: Pseudomonas aeruginosa; experiment: Antibacterial activity against Pseudomonas aeruginosa PAO1 assessed as reduction in bacterial growth by measuring nitrofurantoin MIC at <=10 uM in presence of nitrofurantoin incubated for 18 hrs by broth microdilution assay based checkerboard assay (reference value: 512 microg/ml); type: functional; details: dose microM <=10
[23] = system: Pseudomonas aeruginosa; experiment: Antibacterial activity against Pseudomonas aeruginosa PAO1 assessed as fractional inhibitory concentration index in presence of Cefotaxime incubated for 18 hrs by broth microdilution assay based checkerboard assay; type: functional
[24] = system: Pseudomonas aeruginosa; experiment: Antibacterial activity against Pseudomonas aeruginosa PAO1 assessed as fractional inhibitory concentration index in presence of Doxycycline incubated for 18 hrs by broth microdilution assay based checkerboard assay; type: functional
[25] = system: Pseudomonas aeruginosa; experiment: Antibacterial activity against Pseudomonas aeruginosa PAO1 assessed as fractional inhibitory concentration index in presence of Tigecycline incubated for 18 hrs by broth microdilution assay based checkerboard assay; type: functional
[26] = system: Pseudomonas aeruginosa; experiment: Antibacterial activity against Pseudomonas aeruginosa PAO1 assessed as fractional inhibitory concentration index in presence of Vancomycin incubated for 18 hrs by broth microdilution assay based checkerboard assay; type: functional
[27] = system: Pseudomonas aeruginosa; experiment: Antibacterial activity against Pseudomonas aeruginosa PAO1 assessed as fractional inhibitory concentration index in presence of Aztreonam incubated for 18 hrs by broth microdilution assay based checkerboard assay; type: functional
[28] = system: Pseudomonas aeruginosa; experiment: Antibacterial activity against Pseudomonas aeruginosa PAO1 assessed as fractional inhibitory concentration index in presence of Ceftazidime incubated for 18 hrs by broth microdilution assay based checkerboard assay; type: functional
[29] = system: Pseudomonas aeruginosa; experiment: Antibacterial activity against Pseudomonas aeruginosa PAO1 assessed as fractional inhibitory concentration index in presence of Fosfomycin incubated for 18 hrs by broth microdilution assay based checkerboard assay; type: functional
[30] = system: Pseudomonas aeruginosa; experiment: Antibacterial activity against Pseudomonas aeruginosa PAO1 assessed as fractional inhibitory concentration index in presence of Nitrofurantoin incubated for 18 hrs by broth microdilution assay based checkerboard assay; type: functional
[31] = system: Pseudomonas aeruginosa; experiment: Antibacterial activity against Pseudomonas aeruginosa PAO1 assessed as fractional inhibitory concentration index in presence of Erythromycin incubated for 18 hrs by broth microdilution assay based checkerboard assay; type: functional
[32] = system: Pseudomonas aeruginosa; experiment: Antibacterial activity against Pseudomonas aeruginosa 264-101354 assessed as fractional inhibitory concentration index in presence of doxycycline incubated for 18 hrs by broth microdilution assay; type: functional
[33] = system: Pseudomonas aeruginosa; experiment: Antibacterial activity against Pseudomonas aeruginosa 259-96918 assessed as fractional inhibitory concentration index in presence of doxycycline incubated for 18 hrs by broth microdilution assay; type: functional
[34] = system: Pseudomonas aeruginosa; experiment: Antibacterial activity against Pseudomonas aeruginosa 259-96918 assessed as fractional inhibitory concentration index in presence of chloramphenicol incubated for 18 hrs by broth microdilution assay; type: functional
[35] = system: Pseudomonas aeruginosa; experiment: Antibacterial activity against Pseudomonas aeruginosa 260-97103 assessed as fractional inhibitory concentration index in presence of chloramphenicol incubated for 18 hrs by broth microdilution assay; type: functional
[36] = Cytotoxicity against human HepG2 cells assessed as cell viability at <10 uM incubated for 48 hrs prestoblue assay; type: cell-based; details: read-out: Activity
[37] = Cytotoxicity against human HepG2 cells assessed as cell viability at 50 uM incubated for 48 hrs by prestoblue assay; type: cell-based; details: read-out: Activity
[38] = Cytotoxicity against human HEK293 cells assessed as cell viability at 50 uM incubated for 48 hrs by prestoblue assay; type: cell-based; details: read-out: Activity

SMILES: CO[C@H]1/C=C/O[C@@]2(C)Oc3c(C)c(O)c4c(O)c(c(/C=N/N5CCN(C)CC5)c(O)c4c3C2=O)NC(=O)/C(C)=C\C=C\[C@H](C)[C@H](O)[C@@H](C)[C@@H](O)[C@@H](C)[C@H](OC(C)=O)[C@@H]1C [RIFAMPIN]
- MIC [1]: 8 µg/mL (≈ 9.72 µM)
- MIC [2]: 32 µg/mL (≈ 38.9 µM)
- MIC [3]: ≤ 0.25 µg/mL
- MIC [4]: 8 µg/mL (≈ 9.72 µM)
- MIC [5]: 16 µg/mL (≈ 19.4 µM)
- MIC [6]: 32 µg/mL (≈ 38.9 µM)
- MIC [7]: 16 µg/mL (≈ 19.4 µM)
- MIC [8]: 16 µg/mL (≈ 19.4 µM)
- MIC [9]: 32 µg/mL (≈ 38.9 µM)
- fractional inhibitory concentration index (FICI) [10]: 1.5
- fractional inhibitory concentration index (FICI) [11]: 1.5
- fractional inhibitory concentration index (FICI) [12]: 1.5
- MIC [13]: 512 µg/mL (≈ 622 µM)
- MIC [14]: 16 µg/mL (≈ 19.4 µM)
- MIC [15]: 4 µg/mL (≈ 4.86 µM)
- MIC [16]: 16 µg/mL (≈ 19.4 µM)

SMILES: CO[C@H]1/C=C/O[C@@]2(C)Oc3c(C)c(O)c4c(O)c(c(/C=N/N5CCN(Cc6cn(CCCCCCO[C@@H]7[C@@H](O[C@H]8O[C@H](CO)[C@@H](O)[C@H](N)[C@H]8O)[C@H](N)C[C@H](N)[C@H]7O[C@H]7O[C@H](CN)[C@@H](O)C[C@H]7N)nn6)CC5)c(O)c4c3C2=O)NC(=O)/C(C)=C\C=C\[C@H](C)[C@H](O)[C@@H](C)[C@@H](O)[C@@H](C)[C@H](OC(C)=O)[C@@H]1C.Cl.Cl.Cl.Cl.Cl
- MIC [1]: ≥ 32 µg/mL
- MIC [2]: > 32 µg/mL
- MIC [3]: 4 µg/mL
- MIC [4]: > 32 µg/mL
- MIC [5]: > 32 µg/mL
- MIC [6]: > 32 µg/mL
- MIC [7]: > 32 µg/mL
- MIC [8]: 512 µg/mL
- MIC [9]: 256 µg/mL
- MIC [17]: 4 µg/mL
- MIC [18]: 2 µg/mL
- MIC [19]: 1 µg/mL
- MIC [20]: 2 µg/mL
- MIC [21]: 2 µg/mL
- MIC [22]: 256 µg/mL
- fractional inhibitory concentration index (FICI) [23]: 1.03
- fractional inhibitory concentration index (FICI) [24]: 0.06
- fractional inhibitory concentration index (FICI) [25]: 0.51
- fractional inhibitory concentration index (FICI) [26]: 1.03
- fractional inhibitory concentration index (FICI) [27]: 1.03
- fractional inhibitory concentration index (FICI) [28]: 1.03
- fractional inhibitory concentration index (FICI) [29]: 0.15
- fractional inhibitory concentration index (FICI) [30]: 0.53
- fractional inhibitory concentration index (FICI) [31]: 0.15
- fractional inhibitory concentration index (FICI) [32]: 0.064
- fractional inhibitory concentration index (FICI) [10]: 0.187
- fractional inhibitory concentration index (FICI) [11]: <0.07
- fractional inhibitory concentration index (FICI) [12]: <0.125
- fractional inhibitory concentration index (FICI) [33]: <0.156
- fractional inhibitory concentration index (FICI) [34]: <0.375
- fractional inhibitory concentration index (FICI) [35]: <0.141
- viability at 48 h [36]: > 90%
- viability at 48 h, 50 µM [37]: > 70%
- viability at 48 h, 50 µM [38]: > 70%
- MIC [13]: > 256 µg/mL
- MIC [14]: 256 µg/mL
- MIC [15]: ≥ 256 µg/mL
- MIC [16]: > 128 µg/mL
